From patent US9340590B2 (priority 2011, dated 2016)
Where two headings read alike, the source gives them in different places. Positions of bridges follow the written chain, without caps; N, C: chain ends. Non-standard residues stand in square brackets, D forms with d. Residues, ends and D or L forms follow the SMILES beside them. Lys(Me2) = CN(C)CCCC[C@H](N)C(=O)O

Legend:
Assay in all cases: cell-based
hNav1.7 [1] = target: T1, hNav1.7 (Homo sapiens, UniProt Q15858); type: cell-based; conditions: IonWorks Quattro, use-dependent block, hNav1.7; read-out: IWQ Use Nav1.7
T1 sequence (Q15858 whole entry, looked up): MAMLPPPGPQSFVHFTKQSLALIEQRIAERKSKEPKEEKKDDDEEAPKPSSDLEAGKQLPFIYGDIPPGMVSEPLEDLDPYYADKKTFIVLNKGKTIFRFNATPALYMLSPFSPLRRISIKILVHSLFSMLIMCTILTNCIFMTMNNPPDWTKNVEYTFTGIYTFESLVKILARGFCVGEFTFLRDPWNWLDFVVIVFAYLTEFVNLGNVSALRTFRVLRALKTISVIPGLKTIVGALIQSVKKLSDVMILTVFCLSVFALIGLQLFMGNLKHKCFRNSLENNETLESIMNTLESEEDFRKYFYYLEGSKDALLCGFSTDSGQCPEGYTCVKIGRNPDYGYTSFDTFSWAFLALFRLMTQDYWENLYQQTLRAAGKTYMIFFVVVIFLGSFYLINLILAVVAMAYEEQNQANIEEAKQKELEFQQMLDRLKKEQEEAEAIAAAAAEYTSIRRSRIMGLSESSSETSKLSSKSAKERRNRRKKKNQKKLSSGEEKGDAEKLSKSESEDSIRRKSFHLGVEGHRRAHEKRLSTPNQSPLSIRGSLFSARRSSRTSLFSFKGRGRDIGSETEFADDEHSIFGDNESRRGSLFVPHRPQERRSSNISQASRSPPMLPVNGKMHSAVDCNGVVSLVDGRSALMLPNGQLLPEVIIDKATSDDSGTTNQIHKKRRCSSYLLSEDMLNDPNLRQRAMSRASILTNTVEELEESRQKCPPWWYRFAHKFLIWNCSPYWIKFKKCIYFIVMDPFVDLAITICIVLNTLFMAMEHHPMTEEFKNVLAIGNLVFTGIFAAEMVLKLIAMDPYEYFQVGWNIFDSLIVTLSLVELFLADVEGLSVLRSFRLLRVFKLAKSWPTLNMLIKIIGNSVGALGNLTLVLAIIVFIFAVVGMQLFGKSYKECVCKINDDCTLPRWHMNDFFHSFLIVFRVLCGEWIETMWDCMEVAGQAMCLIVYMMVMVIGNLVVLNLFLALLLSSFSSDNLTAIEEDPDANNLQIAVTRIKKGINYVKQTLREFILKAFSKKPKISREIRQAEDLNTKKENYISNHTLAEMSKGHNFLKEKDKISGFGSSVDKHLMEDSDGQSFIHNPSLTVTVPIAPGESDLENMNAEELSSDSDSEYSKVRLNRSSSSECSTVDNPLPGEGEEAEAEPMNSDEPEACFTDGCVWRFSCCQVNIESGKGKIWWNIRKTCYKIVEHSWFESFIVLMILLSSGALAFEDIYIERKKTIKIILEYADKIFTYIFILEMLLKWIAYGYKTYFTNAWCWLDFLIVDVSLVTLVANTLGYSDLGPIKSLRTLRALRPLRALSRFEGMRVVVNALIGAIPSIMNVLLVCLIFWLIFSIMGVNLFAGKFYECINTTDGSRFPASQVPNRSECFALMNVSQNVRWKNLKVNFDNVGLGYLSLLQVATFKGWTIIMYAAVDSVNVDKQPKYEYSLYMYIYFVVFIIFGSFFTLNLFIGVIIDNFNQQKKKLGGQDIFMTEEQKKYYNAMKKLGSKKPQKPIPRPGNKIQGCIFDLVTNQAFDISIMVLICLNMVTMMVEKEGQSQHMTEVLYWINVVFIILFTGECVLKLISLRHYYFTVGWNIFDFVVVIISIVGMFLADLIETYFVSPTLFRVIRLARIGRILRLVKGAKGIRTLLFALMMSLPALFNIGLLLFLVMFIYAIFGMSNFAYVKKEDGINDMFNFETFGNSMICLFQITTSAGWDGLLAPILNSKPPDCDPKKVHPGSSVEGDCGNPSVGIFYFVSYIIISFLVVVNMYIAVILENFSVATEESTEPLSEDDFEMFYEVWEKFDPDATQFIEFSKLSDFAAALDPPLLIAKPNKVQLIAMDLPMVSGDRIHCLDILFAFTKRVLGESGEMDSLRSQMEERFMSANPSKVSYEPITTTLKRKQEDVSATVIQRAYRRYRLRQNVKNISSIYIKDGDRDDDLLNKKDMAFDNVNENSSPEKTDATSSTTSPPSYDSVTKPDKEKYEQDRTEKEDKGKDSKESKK

hNav1.3 = hNav1.3 (Homo sapiens, UniProt Q9NY46); conditions: IonWorks Quattro, use-dependent block, hNav1.3; read-out: IWQ Use Nav1.3
Sequence of hNav1.3 (Q9NY46 whole entry, looked up): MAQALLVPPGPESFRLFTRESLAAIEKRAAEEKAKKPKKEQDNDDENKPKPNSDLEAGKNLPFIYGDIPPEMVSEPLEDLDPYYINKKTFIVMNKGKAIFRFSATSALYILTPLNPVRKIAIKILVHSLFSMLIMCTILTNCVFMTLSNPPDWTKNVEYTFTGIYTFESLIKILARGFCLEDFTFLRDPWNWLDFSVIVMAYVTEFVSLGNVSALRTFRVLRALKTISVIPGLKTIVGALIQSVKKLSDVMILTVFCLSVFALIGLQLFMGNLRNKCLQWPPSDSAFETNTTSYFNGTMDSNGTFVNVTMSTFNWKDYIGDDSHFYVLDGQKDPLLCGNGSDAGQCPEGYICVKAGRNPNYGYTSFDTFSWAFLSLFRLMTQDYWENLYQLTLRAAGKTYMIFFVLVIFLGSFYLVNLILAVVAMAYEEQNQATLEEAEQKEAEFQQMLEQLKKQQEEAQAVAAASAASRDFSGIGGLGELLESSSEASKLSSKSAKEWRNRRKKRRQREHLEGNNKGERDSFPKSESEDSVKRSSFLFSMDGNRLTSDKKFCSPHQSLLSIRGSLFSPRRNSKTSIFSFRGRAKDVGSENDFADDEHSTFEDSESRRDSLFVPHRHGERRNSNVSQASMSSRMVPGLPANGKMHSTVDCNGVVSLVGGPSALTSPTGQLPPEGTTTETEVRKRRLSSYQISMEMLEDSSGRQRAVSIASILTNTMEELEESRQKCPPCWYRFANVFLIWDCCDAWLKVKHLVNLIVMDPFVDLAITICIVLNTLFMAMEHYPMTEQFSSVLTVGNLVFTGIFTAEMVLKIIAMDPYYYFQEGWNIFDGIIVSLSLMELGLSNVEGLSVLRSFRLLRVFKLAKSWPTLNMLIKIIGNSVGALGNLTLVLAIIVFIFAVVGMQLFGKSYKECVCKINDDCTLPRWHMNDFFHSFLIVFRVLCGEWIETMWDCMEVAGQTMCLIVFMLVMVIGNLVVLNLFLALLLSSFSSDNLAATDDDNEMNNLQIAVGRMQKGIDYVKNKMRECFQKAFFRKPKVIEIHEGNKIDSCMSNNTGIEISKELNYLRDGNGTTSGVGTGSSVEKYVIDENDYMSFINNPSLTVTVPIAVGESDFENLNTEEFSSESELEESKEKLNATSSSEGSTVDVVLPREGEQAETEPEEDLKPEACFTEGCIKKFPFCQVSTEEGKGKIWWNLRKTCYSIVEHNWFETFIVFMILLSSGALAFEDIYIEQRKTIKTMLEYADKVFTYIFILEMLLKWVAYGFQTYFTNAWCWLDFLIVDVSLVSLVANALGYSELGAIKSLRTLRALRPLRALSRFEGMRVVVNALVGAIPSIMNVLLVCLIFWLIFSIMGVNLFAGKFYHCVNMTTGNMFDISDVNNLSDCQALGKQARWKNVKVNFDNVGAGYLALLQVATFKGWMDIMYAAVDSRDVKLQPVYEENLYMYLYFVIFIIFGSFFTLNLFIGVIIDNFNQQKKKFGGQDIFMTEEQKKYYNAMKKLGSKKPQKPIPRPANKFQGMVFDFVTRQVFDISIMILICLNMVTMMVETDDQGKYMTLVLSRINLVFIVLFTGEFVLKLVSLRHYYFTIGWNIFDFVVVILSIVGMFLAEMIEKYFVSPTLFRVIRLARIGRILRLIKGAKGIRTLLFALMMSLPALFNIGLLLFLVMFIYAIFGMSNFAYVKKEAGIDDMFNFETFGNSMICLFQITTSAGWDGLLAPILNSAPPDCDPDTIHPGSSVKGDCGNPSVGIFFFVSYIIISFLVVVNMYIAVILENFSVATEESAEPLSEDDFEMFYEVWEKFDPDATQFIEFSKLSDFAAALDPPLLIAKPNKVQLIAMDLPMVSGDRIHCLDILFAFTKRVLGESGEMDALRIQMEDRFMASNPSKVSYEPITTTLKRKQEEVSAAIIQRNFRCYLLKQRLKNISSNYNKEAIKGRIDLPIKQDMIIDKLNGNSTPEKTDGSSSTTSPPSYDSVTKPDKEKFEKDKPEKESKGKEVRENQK

hNav1.7 [2] = target: T1, hNav1.7; conditions: Nav1.7 Use IC50
hNav1.5 [3] = target: T2, hNav1.5 (Homo sapiens, UniProt Q14524)
hNav1.5 [4] = target: T2, hNav1.5; conditions: IonWorks Quattro, use-dependent block, hNav1.5; read-out: IWQ Use Nav1.5

| SMILES | IC50 (hNav1.7 [1]) [nM] | IC50 (hNav1.3) [nM] | IC50 (hNav1.7 [2]) [nM] | IC50 (hNav1.5 [3]) [nM] | IC50 (hNav1.5 [4]) [nM] |
| --- | --- | --- | --- | --- | --- |
| CC[C@H](C)[C@@H]1NC(=O)[C@@H]2CSSC[C@@H]3NC(=O)[C@H](C(C)C)NC(=O)[C@H](CC(C)C)NC(=O)[C@H](CC(N)=O)NC(=O)[C@@H]4CCCN4C(=O)[C@H](CCCNC(=N)N)NC(=O)[C@H](CSSC[C@H](NC(=O)[C@@H](N)CC(=O)O)C(=O)N[C@@H](CC(C)C)C(=O)NCC(=O)N[C@@H](Cc4ccccc4)C(=O)N[C@@H](CCSC)C(=O)N[C@@H](CCCCN(C)C)C(=O)N[C@@H](CCCCN)C(=O)N2)NC(=O)[C@H](CSSC[C@@H](C(=O)N[C@@H](CCCCN)C(=O)N[C@@H](Cc2ccc(O)cc2)C(=O)N[C@H](C(=O)N[C@@H](Cc2ccccc2)C(N)=O)C(C)C)NC(=O)[C@H](Cc2c[nH]c4ccccc24)NC(=O)[C@H](CCCCN)NC(=O)[C@H](Cc2c[nH]cn2)NC(=O)[C@H]([C@@H](C)O)NC(=O)[C@H](CCCNC(=N)N)NC(=O)[C@H](CO)NC3=O)NC(=O)[C@H](CCCCN)NC(=O)[C@H](CC(=O)O)NC(=O)[C@H](CC(N)=O)NC(=O)[C@H](CC(=O)O)NC(=O)[C@@H]2CCCN2C1=O [[K(Me2)7]GpTx-1(1-34)] (H-DCLGFM[Lys(Me2)]KCIPDNDKCCRPNLVCSRTHKWCKYVF-NH2; disulfide 2-17, 9-23, 16-30) | 820 | 270 | 20 | > 10000 | 13300 |
| CC[C@H](C)[C@@H]1NC(=O)[C@@H]2CSSC[C@@H]3NC(=O)[C@H](C(C)C)NC(=O)[C@H](CC(C)C)NC(=O)[C@H](CC(N)=O)NC(=O)[C@@H]4CCCN4C(=O)[C@H](CCCNC(=N)N)NC(=O)[C@H](CSSC[C@H](NC(=O)[C@@H](N)CC(=O)O)C(=O)N[C@@H](CC(C)C)C(=O)NCC(=O)N[C@@H](Cc4ccccc4)C(=O)N[C@@H](CCSC)C(=O)N[C@@H](CCCNC(=N)N)C(=O)N[C@@H](CCCCN(C)C)C(=O)N2)NC(=O)[C@H](CSSC[C@@H](C(=O)N[C@@H](CCCCN)C(=O)N[C@@H](Cc2ccc(O)cc2)C(=O)N[C@H](C(=O)N[C@@H](Cc2ccccc2)C(N)=O)C(C)C)NC(=O)[C@H](Cc2c[nH]c4ccccc24)NC(=O)[C@H](CCCCN)NC(=O)[C@H](Cc2c[nH]cn2)NC(=O)[C@H]([C@@H](C)O)NC(=O)[C@H](CCCNC(=N)N)NC(=O)[C@H](CO)NC3=O)NC(=O)[C@H](CCCCN)NC(=O)[C@H](CC(=O)O)NC(=O)[C@H](CC(N)=O)NC(=O)[C@H](CC(=O)O)NC(=O)[C@@H]2CCCN2C1=O [[K(Me2)8]GpTx-1(1-34)] | 190 | 180 | 4 | > 10000 | 9460 |
| CC[C@H](C)[C@@H]1NC(=O)[C@@H]2CSSC[C@@H]3NC(=O)[C@H](C(C)C)NC(=O)[C@H](CC(C)C)NC(=O)[C@H](CC(N)=O)NC(=O)[C@@H]4CCCN4C(=O)[C@H](CCCNC(=N)N)NC(=O)[C@H](CSSC[C@H](NC(=O)[C@@H](N)CC(=O)O)C(=O)N[C@@H](CC(C)C)C(=O)NCC(=O)N[C@@H](Cc4ccccc4)C(=O)N[C@@H](CCSC)C(=O)N[C@@H](CCCNC(=NC)NC)C(=O)N[C@@H](CCCCN)C(=O)N2)NC(=O)[C@H](CSSC[C@@H](C(=O)N[C@@H](CCCCN)C(=O)N[C@@H](Cc2ccc(O)cc2)C(=O)N[C@H](C(=O)N[C@@H](Cc2ccccc2)C(N)=O)C(C)C)NC(=O)[C@H](Cc2c[nH]c4ccccc24)NC(=O)[C@H](CCCCN)NC(=O)[C@H](Cc2c[nH]cn2)NC(=O)[C@H]([C@@H](C)O)NC(=O)[C@H](CCCNC(=N)N)NC(=O)[C@H](CO)NC3=O)NC(=O)[C@H](CCCCN)NC(=O)[C@H](CC(=O)O)NC(=O)[C@H](CC(N)=O)NC(=O)[C@H](CC(=O)O)NC(=O)[C@@H]2CCCN2C1=O [[SDMA7]GpTx-1(1-34)] | 240 | 120 | 6 | 14000 | 10300 |
